# From ChEMBL document CHEMBL3112436, “Discovery of a novel series of indoline carbamate and indolinylpyrimidine derivatives as potent GPR119 agonists” (Bioorg Med Chem, 2014)
# Key:
# [1] = molecular target: T1, Glucose-dependent insulinotropic receptor (Homo sapiens, UniProt Q8TDV5); assay: Agonist activity at human GPR119 transfected in CHO cells assessed as cAMP accumulation after 2 hrs by luciferase reporter gene assay; format: functional, cell-based
# T1 sequence (Q8TDV5 whole entry): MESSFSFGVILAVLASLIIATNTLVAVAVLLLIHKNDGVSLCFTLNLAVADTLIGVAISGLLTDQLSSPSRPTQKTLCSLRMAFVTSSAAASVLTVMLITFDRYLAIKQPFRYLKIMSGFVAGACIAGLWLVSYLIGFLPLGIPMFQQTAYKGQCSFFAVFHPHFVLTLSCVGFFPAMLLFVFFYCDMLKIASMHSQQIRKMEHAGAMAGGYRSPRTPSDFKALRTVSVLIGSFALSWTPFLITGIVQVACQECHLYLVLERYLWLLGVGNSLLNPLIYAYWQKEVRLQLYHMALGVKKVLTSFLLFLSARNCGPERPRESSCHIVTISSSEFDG
# [2] = 1-Octanol-water partition coefficient, log D of the compound at pH 7.4 by HPLC analysis; format: physicochemical
# Rattus norvegicus [3] = assay: Antidiabetic activity in Wistar fatty rat type 2 diabetic model assessed as reduction of plasma glucose level at 10 mg/kg, po administered 1 hr prior to glucose challenge by oral glucose tolerance test; format: functional, organism-based; set-up: dose 10 mg/kg; conditions: TDE = time-dependent effect
# Rattus norvegicus [4] = assay: Antidiabetic activity in Wistar fatty rat type 2 diabetic model assessed as increase in insulin secretion at 10 mg/kg, po administered 1 hr prior to glucose challenge by oral glucose tolerance test; format: functional, organism-based; set-up: dose 10 mg/kg; conditions: TDE = time-dependent effect
# Rattus norvegicus [5] = assay: Antidiabetic activity in Wistar fatty rat type 2 diabetic model assessed as reduction of plasma glucose level at 30 mg/kg, po administered 1 hr prior to glucose challenge by oral glucose tolerance test; format: functional, organism-based; set-up: dose 30 mg/kg; conditions: TDE = time-dependent effect
# [6] = Aqueous solubility of the compound in buffer at pH 6.8 by HPLC analysis; format: physicochemical
# Rattus norvegicus [7] = assay: Antidiabetic activity in Wistar fatty rat type 2 diabetic model assessed as increase in insulin secretion at 30 mg/kg, po administered 1 hr prior to glucose challenge by oral glucose tolerance test; format: functional, organism-based; set-up: dose 30 mg/kg; conditions: TDE = time-dependent effect
Structure (SMILES),EC50 [1] [nM],logD [2],Activity (Rattus norvegicus [3]),Activity (Rattus norvegicus [4]),Activity (Rattus norvegicus [5]),solubility [6] [µg/mL],Activity (Rattus norvegicus [7])
CC(C)(C)OC(=O)N1CCC(CCNC(=O)N2CCc3cc(S(C)(=O)=O)ccc32)CC1,2500,2.3,–,–,–,–,–
CC(C)OC(=O)N1CCC(Oc2cc(N3CCc4cc(S(C)(=O)=O)ccc43)ncn2)CC1,17,3.1,–,–,–,–,–
CC(C)(C)OC(=O)N1CCC(CCCC(=O)N2CCc3cc(S(C)(=O)=O)ccc32)CC1,120,2.9,–,–,–,–,–
CC(C)OC(=O)N1CCC(Oc2ccnc(N3CCc4cc(S(C)(=O)=O)ccc43)n2)CC1,8800,3.5,–,–,–,–,–
CC(C)OC(=O)N1CCC(Oc2ncnc(N3CCc4cc(S(C)(=O)=O)ccc43)n2)CC1,520,2.6,–,–,–,–,–
CC(C)c1noc(N2CCC(Oc3cc(N4CCc5cc(S(C)(=O)=O)ccc54)ncn3)CC2)n1,7.7,3.1,tde,tde,–,–,–
CCc1cnc(N2CCC(Oc3cc(N4CCc5cc(S(C)(=O)=O)ccc54)ncn3)CC2)nc1,11,3.8,–,–,–,–,–
CCc1cnc(N2CCC(C(C)COC(=O)N3CCc4cc(S(C)(=O)=O)cc(F)c43)CC2)nc1 (racemic),3.9,3.6,–,–,tde,3.8,tde
CC(C)OC(=O)N1CCC(Oc2cccc(N3CCc4cc(S(C)(=O)=O)ccc43)c2)CC1,490,3.5,–,–,–,–,–
CC(COC(=O)N1CCc2cc(S(C)(=O)=O)ccc21)C1CCN(C(=O)OC(C)(C)C)CC1 (racemic),8.4,3.4,–,–,–,–,–
CC(COC(=O)N1CCc2cc(S(C)(=O)=O)cc(F)c21)C1CCN(C(=O)OC(C)(C)C)CC1 (racemic),6.8,3.3,–,–,–,21,–
CC(C)(C)OC(=O)N1CCC(CCOC(=O)N2CCc3cc(S(C)(=O)=O)cc(Cl)c32)CC1,21,3.2,–,–,–,21,–
CC(C)(C)OC(=O)N1CCC(n2ccc3c(N4CCc5cc(S(C)(=O)=O)ccc54)ncnc32)CC1,16,–,–,–,–,–,–
Cc1c(S(C)(=O)=O)ccc2c1CCN2C(=O)OCCC1CCN(C(=O)OC(C)(C)C)CC1,770,3.4,–,–,–,0.17,–
COc1cc2c(cc1S(C)(=O)=O)CCN2C(=O)OCCC1CCN(C(=O)OC(C)(C)C)CC1,4800,3.3,–,–,–,45,–
CC(CC1CCN(C(=O)OC(C)(C)C)CC1)OC(=O)N1CCc2cc(S(C)(=O)=O)ccc21 (racemic),2600,3.4,–,–,–,–,–
CC(C)(C)OC(=O)N1CCC(C(O)COC(=O)N2CCc3cc(S(C)(=O)=O)ccc32)CC1 (racemic),2400,2.1,–,–,–,–,–
CC(C)(C)OC(=O)N1CCC(CCOC(=O)N2CCc3cc(S(C)(=O)=O)ccc32)CC1,68,3.1,–,–,–,–,–
CC(C)(C)OC(=O)N1CCC(CCOC(=O)N2CCc3cc(S(C)(=O)=O)cc(F)c32)CC1,25,3,–,–,–,42,–
COc1cc(S(C)(=O)=O)cc2c1N(C(=O)OCCC1CCN(C(=O)OC(C)(C)C)CC1)CC2,1700,2.8,–,–,–,64,–
CC(C)(C)OC(=O)N1CCC(CCOC(=O)N2CCc3cc(S(C)(=O)=O)c(F)cc32)CC1,160,3.3,–,–,–,0.67,–
CC(C)(C)OC(=O)N1CCC(CCOC(=O)N2CCc3c2ccc(S(C)(=O)=O)c3F)CC1,25,3.2,–,–,–,0.81,–
CC(C)OC(=O)N1CCC(Oc2ccnc(N3CCc4cc(S(C)(=O)=O)ccc43)c2)CC1,87,3,–,–,–,–,–
CC(C)(C)OC(=O)N1CCC(CCCCN2CCc3cc(S(C)(=O)=O)ccc32)CC1,1400,4.1,–,–,–,–,–
CC(C)(C)OC(=O)N1CCC(CCOC(=O)N2CCc3c2ccc(S(C)(=O)=O)c3Cl)CC1,530,3.6,–,–,–,0.21,–
Cc1cc(S(C)(=O)=O)cc2c1N(C(=O)OCCC1CCN(C(=O)OC(C)(C)C)CC1)CC2,44,3.2,–,–,–,44,–
